Data taken from paper PMC8826081, “Three-Carbon Linked Dihydroartemisinin-Isatin Hybrids: Design, Synthesis and Their Antiproliferative Anticancer Activity” (Frontiers in Pharmacology, 2022).

Assays:
A549 lung cancer cells = experiment: MTT antiproliferative activity against A549; assay type: cell-based; conditions: MTT assay, drug-sensitive A549
From the text: (§1) 3-(4,5-dimethylthiazol-2-yl)-2,5-diphenyltetrazolium bromide (MTT) assay was used to determined the antiproliferative activity of dihydroartemisinin-isatin hybrids 5a-e and 6a-j with three-carbon linker against A549, multidrug-resistant A549/DOX and A549/DDP lung cancer cell lines as well as cytotoxicity towards normal lung epithelial cell line (BEAS-2B). The inhibitory effects were expressed in terms of half maximal inhibitory concentration (IC50) values.
(§2) A549, A549/DOX, and A549/DDP lung cancer cells (2×10^3) were plated in each well of a 96-well plate and were allowed to adhere and spread for 24 h. The […] were added to a final concentration of 100 µM, and the cells were cultured for 24 h at 37 °C. 3-(4,5-dimethyl-2-thiazolyl)-2,5-diphenyltetrazolium bromide (MTT) solution (10 µL) was added to each well, and the cultures were incubated for an additional 4 h. A further 100 µL of […] was added and incubation continued overnight. The absorbance at 540 nm was determined in each well with a 96-well plate reader. The growth of the treated cells was compared with that of untreated cells.

[1] = tested on: A549/DOX (doxorubicin-resistant A549 cells); experiment: MTT antiproliferative activity against doxorubicin-resistant A549; assay type: cell-based; conditions: for IC50: MTT assay, doxorubicin-resistant A549 cells
From the text: as §1, §2

[2] = tested on: A549/DDP (cisplatin-resistant A549 cells); experiment: MTT antiproliferative activity against cisplatin-resistant A549; assay type: cell-based; conditions: for IC50: MTT assay, cisplatin-resistant A549 cells
From the text: as §1, §2

in vitro = conditions: human
Description: as §1
(§3) The compounds were dissolved in DMSO with concentrations from 1024 to 1 μg/mL. The NIH/3T3 cells were maintained in culture medium at 37 °C under 5% CO2 atmosphere. Cells were seeded in 96-well plates (1×10^4 cell per well) and allowed to recover for 24 h. After 72 h of exposure, cells were harvested and cell viability was assessed by MTT assay. The CC50 values were calculated by Bliss analysis.

[3] = tested on: A549, A549/DOX and A549/DDP lung cancer cell lines; experiment: MTT antiproliferative activity, summarised over the three lung cancer cell lines; assay type: cell-based; conditions: MTT assay, span of values over the three lung cancer cell lines; read-out: IC50 (range over A549, A549/DOX and A549/DDP)
From the text: as §1, §2

[4] = tested on: BEAS-2B normal lung epithelial cell line; experiment: MTT cytotoxicity towards normal lung epithelial cells; conditions: IC50(BEAS-2B)/IC50(A549)
Description: as §1, §3

SMILES | IC50 (A549 lung cancer cells; Homo sapiens) [µM] | IC50 ([1]; Homo sapiens) [µM] | IC50 ([2]; Homo sapiens) [µM] | IC50 (in vitro) [µM] | IC50 [3] [µM] | RI1 (Resistance index: IC50(A549/DOX)/IC50(A549)) [1] | RI2 (Resistance index: IC50(A549/DDP)/IC50(A549)) [2] | SI (Selectivity index: IC50(BEAS-2B)/IC50(A549)) [4] | IC50 (A549 lung cancer cells) [µM] | IC50 [1] [µM] | IC50 [2] [µM] | IC50 (in vitro; BEAS-2B normal lung epithelial cells) [µM]
COc1cccc2c1C(=O)c1c(O)c3c(c(O)c1C2=O)C[C@@](O)(C(=O)CO)C[C@@H]3O[C@H]1C[C@H](N)[C@H](O)[C@H](C)O1 [doxorubicin, reference compound] | 4.06 | 54.3 | 15.1 | 93.8 | 4.06 to 54.3 |  |  |  |  |  |  | 
C[C@@H]1CC[C@H]2[C@@H](C)C(OCCCN3C(=O)C(=NNC(N)=O)c4ccccc43)O[C@@H]3O[C@@]4(C)CC[C@@H]1[C@]32OO4 (stereo partly drawn) [6b, 2-(2-oxo-1-(3-(((3R,5aS,6R,8aS,9R,12R,12aR)-3,6,9-trimethyldecahydro-12H-3,12-epoxy[1,2]dioxepino[4,3-i]isochromen-10-yl)oxy)propyl)indolin-3-ylidene)hydrazine-1-carboxamide] | > 100 | > 100 | > 100 | > 100 |  |  |  |  |  |  |  | 
C[C@@H]1CC[C@H]2[C@@H](C)C(OCCCN3C(=O)C(=O)c4cc(F)ccc43)O[C@@H]3O[C@@]4(C)CC[C@@H]1[C@]32OO4 (stereo partly drawn) [5b, 5-fluoro-1-(3-(((3R,5aS,6R,8aS,9R,12R,12aR)-3,6,9-trimethyldecahydro-12H-3,12-epoxy[1,2]dioxepino[4,3-i]isochromen-10-yl)oxy)propyl)indoline-2,3-dione] | > 100 | > 100 | > 100 | > 100 |  |  |  |  |  |  |  | 
C[C@@H]1CC[C@H]2[C@@H](C)C(OCCCN3C(=O)C(=O)c4cc(Cl)ccc43)O[C@@H]3O[C@@]4(C)CC[C@@H]1[C@]32OO4 (stereo partly drawn) [5c, 5-chloro-1-(3-(((3R,5aS,6R,8aS,9R,12R,12aR)-3,6,9-trimethyldecahydro-12H-3,12-epoxy[1,2]dioxepino[4,3-i]isochromen-10-yl)oxy)propyl)indoline-2,3-dione] | 53.6 | 49.7 | 79.8 | > 100 |  | 0.93 | 1.49 | >1.8 |  |  |  | 
Cc1ccc2c(c1)C(=NNC(N)=S)C(=O)N2CCCOC1O[C@@H]2O[C@@]3(C)CC[C@H]4[C@H](C)CC[C@@H]([C@H]1C)[C@@]24OO3 (stereo partly drawn) [6h, 2-(5-methyl-2-oxo-1-(3-(((3R,5aS,6R,8aS,9R,12R,12aR)-3,6,9-trimethyldecahydro-12H-3,12-epoxy[1,2]dioxepino[4,3-i]isochromen-10-yl)oxy)propyl)indolin-3-ylidene)hydrazine-1-carbothioamide] | 99.6 | 87.3 | 94.2 | > 100 |  | 0.88 | 0.95 | >1.0 |  |  |  | 
C[C@@H]1CC[C@H]2[C@@H](C)C(OCCCN3C(=O)C(=NO)c4cc(Cl)ccc43)O[C@@H]3O[C@@]4(C)CC[C@@H]1[C@]32OO4 (stereo partly drawn) [6f, 5-chloro-3-(hydroxyimino)-1-(3-(((3R,5aS,6R,8aS,9R,12R,12aR)-3,6,9-trimethyldecahydro-12H-3,12-epoxy[1,2]dioxepino[4,3-i]isochromen-10-yl)oxy)propyl)indolin-2-one] | 24.7 | 26.9 | 31.9 | > 100 |  | 1.08 | 1.29 | >4.0 |  |  |  | 
C[C@H]1[C@@H](O)O[C@@H]2O[C@@]3(C)CC[C@H]4[C@H](C)CC[C@@H]1[C@@]24OO3 [DHA, Dihydroartemisinin] | 69.4 | 88 | 75.9 | > 100 | 69.4 to 88 | 1.27 | 1.09 | >1.4 |  |  |  | 
Cc1ccc2c(c1)C(=O)C(=O)N2CCCOC1O[C@@H]2O[C@@]3(C)CC[C@H]4[C@H](C)CC[C@@H]([C@H]1C)[C@@]24OO3 (stereo partly drawn) [5d, 5-methyl-1-(3-(((3R,5aS,6R,8aS,9R,12R,12aR)-3,6,9-trimethyldecahydro-12H-3,12-epoxy[1,2]dioxepino[4,3-i]isochromen-10-yl)oxy)propyl)indoline-2,3-dione] | > 100 | > 100 | > 100 | > 100 |  |  |  |  |  |  |  | 
C[C@@H]1CC[C@H]2[C@@H](C)C(OCCCN3C(=O)C(=NNC(N)=S)c4ccccc43)O[C@@H]3O[C@@]4(C)CC[C@@H]1[C@]32OO4 (stereo partly drawn) [6c, 2-(2-oxo-1-(3-(((3R,5aS,6R,8aS,9R,12R,12aR)-3,6,9-trimethyldecahydro-12H-3,12-epoxy[1,2]dioxepino[4,3-i]isochromen-10-yl)oxy)propyl)indolin-3-ylidene)hydrazine-1-carbothioamide] | 23.2 | 36.6 | 28.8 | > 100 |  | 1.57 | 1.24 | >4.3 |  |  |  | 
C[C@@H]1CC[C@H]2[C@@H](C)C(OCCCN3C(=O)C(=NNC(N)=O)c4cc(F)ccc43)O[C@@H]3O[C@@]4(C)CC[C@@H]1[C@]32OO4 (stereo partly drawn) [6d, 2-(5-fluoro-2-oxo-1-(3-(((3R,5aS,6R,8aS,9R,12R,12aR)-3,6,9-trimethyldecahydro-12H-3,12-epoxy[1,2]dioxepino[4,3-i]isochromen-10-yl)oxy)propyl)indolin-3-ylidene)hydrazine-1-carboxamide] | > 100 | > 100 | > 100 | > 100 |  |  |  |  |  |  |  | 
C[C@@H]1CC[C@H]2[C@@H](C)C(OCCCN3C(=O)C(=O)c4ccccc43)O[C@@H]3O[C@@]4(C)CC[C@@H]1[C@]32OO4 (stereo partly drawn) [5a, 1-(3-(((3R,5aS,6R,8aS,9R,12R,12aR)-3,6,9-trimethyldecahydro-12H-3,12-epoxy[1,2]dioxepino[4,3-i]isochromen-10-yl)oxy)propyl)indoline-2,3-dione] | > 100 | > 100 | > 100 | > 100 |  |  |  |  |  |  |  | 
N.N.[Cl][Pt][Cl] [cisplatin, reference compound] |  |  |  |  | 9.38 to 66.9 |  |  |  | 9.38 | 19.7 | 66.9 | 
C[C@@H]1CC[C@H]2[C@@H](C)C(=O)O[C@@H]3O[C@@]4(C)CC[C@@H]1[C@]32OO4 [Artemisinin] | > 100 | > 100 | > 100 |  | > 100 |  |  |  |  |  |  | > 100
COc1ccc2c(c1)C(=O)C(=O)N2CCCOC1O[C@@H]2O[C@@]3(C)CC[C@H]4[C@H](C)CC[C@@H]([C@H]1C)[C@@]24OO3 (stereo partly drawn) [5e, 5-methoxy-1-(3-(((3R,5aS,6R,8aS,9R,12R,12aR)-3,6,9-trimethyldecahydro-12H-3,12-epoxy[1,2]dioxepino[4,3-i]isochromen-10-yl)oxy)propyl)indoline-2,3-dione] | > 100 | > 100 | > 100 | > 100 |  |  |  |  |  |  |  | 
Cc1ccc2c(c1)C(=NO)C(=O)N2CCCOC1O[C@@H]2O[C@@]3(C)CC[C@H]4[C@H](C)CC[C@@H]([C@H]1C)[C@@]24OO3 (stereo partly drawn) [6g, 3-(hydroxyimino)-5-methyl-1-(3-(((3R,5aS,6R,8aS,9R,12R,12aR)-3,6,9-trimethyldecahydro-12H-3,12-epoxy[1,2]dioxepino[4,3-i]isochromen-10-yl)oxy)propyl)indolin-2-one] | 55.5 | 29.9 | 49.7 | > 100 |  | 0.54 | 0.89 | >1.8 |  |  |  | 
COc1ccc2c(c1)C(=NO)C(=O)N2CCCOC1O[C@@H]2O[C@@]3(C)CC[C@H]4[C@H](C)CC[C@@H]([C@H]1C)[C@@]24OO3 (stereo partly drawn) [6i, 3-(hydroxyimino)-5-methoxy-1-(3-(((3R,5aS,6R,8aS,9R,12R,12aR)-3,6,9-trimethyldecahydro-12H-3,12-epoxy[1,2]dioxepino[4,3-i]isochromen-10-yl)oxy)propyl)indolin-2-one] | 51.6 | 73.5 | 60.2 | > 100 |  |  | 1.17 | >1.9 |  |  |  | 
COc1ccc2c(c1)C(=NNC(N)=S)C(=O)N2CCCOC1O[C@@H]2O[C@@]3(C)CC[C@H]4[C@H](C)CC[C@@H]([C@H]1C)[C@@]24OO3 (stereo partly drawn) [6j, 2-(5-methoxy-2-oxo-1-(3-(((3R,5aS,6R,8aS,9R,12R,12aR)-3,6,9-trimethyldecahydro-12H-3,12-epoxy[1,2]dioxepino[4,3-i]isochromen-10-yl)oxy)propyl)indolin-3-ylidene)hydrazine-1-carbothioamide] | 52.6 | 78.5 | 40.7 | > 100 |  |  | 0.77 | >1.9 |  |  |  | 
